Marks after values point to notes of the source that are not given here.
Assays:
[1] = Acute toxicity, single intraperitoneal injection in rats aged 30-35 days; format: in vivo; settings: both sexes, white outbred, rat, in vivo, ip; rats 30-35 days; single i.p.
Experimental: (§1) Tables 2, 2.1 and 2.2 present the results of acute toxicity studies of the Compounds with active substance content in at least white outbred male mice (body weight 18-24 g) and white outbred rats 30-35 days of age, of both sexes with a single dose. Calculation of toxic doses was made using the Wilcoxon and Litchfield method. Observations were made over 24 hours and 14 days after a single dose.
(§2) LD50 in rat pups after intragastric administration was not found. Intragastric administration to rat pups of doses of more than 1000 mg/kg is technically impossible due to the small volume of the stomach (Table 2.2).

[2] = test system: rats; assay: as above; format: in vivo
Experimental: as §1, §2

[3] = test system: rats; assay: Locomotor activity in Opto-varimex, HEF and LEF rats; format: in vivo
Excerpt: (RS)-2-(2-oxo-4-phenylpyrrolidin-1-yl)acetamide has a psychomodulatory activity with the commensurate effect on motor activity of rats.

[4] = test system: mice; assay: Hyperkinesis induced by 5-oxytryptophan (negative symptoms of schizophrenia); format: in vivo; settings: for Number of shakings: mice, 5-oxytryptophan 300 mg/kg i.p.
Experimental: Studies have been conducted on white outbred male mice (18-24 g), in comparison with the olanzapine (Zyprexa) with intraperitoneal injection.
Phenotropil in all studied doses reduced hyperkinesia (head shakings): at doses of 100 mg/kg—by 88%, at 200 mg/kg—by 87%, and at 300 mg/kg—by 89%. […] Effect of Phenotropil on serotonergic system requires more detailed testing and studies of lower doses, since there is no reason to exclude neuroleptic activity in this test. Preventive or proactive (protective) use of lower doses may be appropriate also in dopaminergic pathology.

[5] = test system: mice; assay: Conflict situation (tranquilizing effect); format: in vivo; settings: 300 mg/kg
Experimental: The tranquilizing effect of Phenotropil (300 mg/kg) was studied by the method of conflict situation and conflict of two reflexes (Vogel, 1971; Sanger et al., 1991; File, 1995; Molodavkin, Voronina, 1995), associated in this case with the desire to satisfy the motivation (drinking) and application of punishment (electric shock, received after each attempt to satisfy the motivation). In the created conflict situation, the animal is experiencing a strong negative stress. Tranquilizers reduce the level of anxiety and psychoemotional stress.

[6] = test system: rats; assay: Hypoxia with hypercapnia in 7-day-old rats; format: in vivo
[7] = test system: rats; assay: Carrageenan-induced paw edema; format: in vivo; settings: 100 mg/kg intragastrically 60 minutes before carrageenan
Experimental: To identify and assess the anti-inflammatory action of Phenotropil, a standard technique was used; the carrageenan-induced paw edema in rats (Winter C. et al, 1962). Phenotropil at a dose of 100 mg/kg was administered intragastrically 60 minutes before carrageenan. Control animals received distilled water. Additionally, the topical application by method of formalin induced edema was investigated (subplantar administration of 0.1 ml of 2% formalin solution). Phenotropil for topical use was prepared (1:1) on the standard ointment base carrier at 100 mg/kg of body weight for each animal (150-220 g). The preparation was rubbed in the leg and a gauze patch was applied for 2 hours and 1 hour before the induction of inflammation.

[8] = normal conditions and high physical activity; cited from earlier work

## NC(=O)CN1CC(c2ccccc2)CC1=O (racemic) [Compound 1, (RS)-2-(2-oxo-4-phenylpyrrolidine-1-yl)acetamide]
[1]
  LD50 at 14 days: 1030 mg/kg
[2]; rats 30-35 days, single i.p.
  LD16: LD16 = 906.7 mg/kg
  LD84: LD84 = 1159.0 mg/kg
[2]; rats 30-35 days, single i.p. 800 mg/kg
  Dead/total number: 0/10
[2]; rats 30-35 days, single i.p. 1000 mg/kg
  Dead/total number: 4/10
[2]; rats 30-35 days, single i.p. 1100 mg/kg
  Dead/total number: 9/10
[2]; rats 30-35 days, single i.p. 1200 mg/kg
  Dead/total number: 9/10
[2]; rats 30-35 days, single i.p. 1500 mg/kg
  Dead/total number: 10/10
[2]; single i.p. 800 mg/kg
  % of dead rat pups: 0%
[2]; single i.p. 1000 mg/kg
  % of dead rat pups: 40%
[2]; single i.p. 1100 mg/kg
  % of dead rat pups: 90%
[2]; single i.p. 1200 mg/kg
  % of dead rat pups: 90%
[2]; single i.p. 1500 mg/kg
  % of dead rat pups: 100%
[3]; HEF rats, 5 mg/kg i.g., 0-5 min
  locomotor activity vs control: −0.06%
[3]; HEF rats, 5 mg/kg i.g., 5-10 min
  locomotor activity vs control: +7.36% *
[3]; HEF rats, 5 mg/kg i.g., 10-15 min
  locomotor activity vs control: −7.36%
[3]; HEF rats, 5 mg/kg i.g., 15-20 min
  locomotor activity vs control: −96.53% *
[3]; HEF rats, 5 mg/kg i.g., 20-25 min
  locomotor activity vs control: −103.15% *
[3]; HEF rats, 5 mg/kg i.g., 25-30 min
  locomotor activity vs control: +207.1% *
[3]; HEF rats, 10 mg/kg i.g., 0-5 min
  locomotor activity vs control: −4.2%
[3]; HEF rats, 10 mg/kg i.g., 5-10 min
  locomotor activity vs control: −8.4%
[3]; HEF rats, 10 mg/kg i.g., 10-15 min
  locomotor activity vs control: −3.73%
[3]; HEF rats, 10 mg/kg i.g., 15-20 min
  locomotor activity vs control: +7.44%
[3]; HEF rats, 10 mg/kg i.g., 20-25 min
  locomotor activity vs control: −4.72%
[3]; HEF rats, 10 mg/kg i.g., 25-30 min
  locomotor activity vs control: 0%
[3]; HEF rats, 10 mg/kg i.g., accumulated, listed as Phenotropil, 10 mg/kg
  locomotor activity vs control: −4.23%
[3]; LEF rats, 5 mg/kg i.g., 0-5 min
  locomotor activity vs control: +15.0% *
[3]; LEF rats, 5 mg/kg i.g., 5-10 min
  locomotor activity vs control: +6.18%
[3]; LEF rats, 5 mg/kg i.g., 10-15 min
  locomotor activity vs control: +9.74%
[3]; LEF rats, 5 mg/kg i.g., 15-20 min
  locomotor activity vs control: +29.1% *
[3]; LEF rats, 5 mg/kg i.g., 20-25 min
  locomotor activity vs control: +2.1%
[3]; LEF rats, 5 mg/kg i.g., 25-30 min
  locomotor activity vs control: +10.0% *
[3]; LEF rats, 10 mg/kg i.g., 0-5 min
  locomotor activity vs control: +4.31%
[3]; LEF rats, 10 mg/kg i.g., 5-10 min
  locomotor activity vs control: +11.31% *
[3]; LEF rats, 10 mg/kg i.g., 10-15 min
  locomotor activity vs control: +27.85%
[3]; LEF rats, 10 mg/kg i.g., 15-20 min
  locomotor activity vs control: +7.23 * %
[3]; LEF rats, 10 mg/kg i.g., 20-25 min
  locomotor activity vs control: +14.39% *
[3]; LEF rats, 10 mg/kg i.g., 25-30 min
  locomotor activity vs control: +3.75%
[3]; population (normal) rats, 5 mg/kg i.g., 0-5 min
  locomotor activity vs control: +18.06% *
[3]; population (normal) rats, 5 mg/kg i.g., 5-10 min
  locomotor activity vs control: −5.95%
[3]; population (normal) rats, 5 mg/kg i.g., 10-15 min
  locomotor activity vs control: −13.03% *
[3]; population (normal) rats, 5 mg/kg i.g., 15-20 min
  locomotor activity vs control: −22.55% *
[3]; population (normal) rats, 5 mg/kg i.g., 20-25 min
  locomotor activity vs control: +50.76% *
[3]; population (normal) rats, 5 mg/kg i.g., 25-30 min
  locomotor activity vs control: +50.97% *
[3]; population (normal) rats, 5 mg/kg i.g., accumulated
  locomotor activity vs control: +4.28% *
[3]; population (normal) rats, 10 mg/kg i.g., 0-5 min
  locomotor activity vs control: +38.8% *
[3]; population (normal) rats, 10 mg/kg i.g., 5-10 min
  locomotor activity vs control: −5.78%
[3]; population (normal) rats, 10 mg/kg i.g., 10-15 min
  locomotor activity vs control: +5.56%
[3]; population (normal) rats, 10 mg/kg i.g., 15-20 min
  locomotor activity vs control: +42.91 * %
[3]; population (normal) rats, 10 mg/kg i.g., 20-25 min
  locomotor activity vs control: +95.6% *
[3]; population (normal) rats, 10 mg/kg i.g., 25-30 min
  locomotor activity vs control: −91.47% *
[3]; population (normal) rats, 10 mg/kg i.g., accumulated
  locomotor activity vs control: +18.0% *
[4]; 100 mg/kg
  reduction of hyperkinesia (head shakings): 88%
  Number of shakings: 1.4 ± 0.5
[4]; 200 mg/kg
  reduction of hyperkinesia (head shakings): 87%
  Number of shakings: 1.5 ± 0.8
[4]; 300 mg/kg
  reduction of hyperkinesia (head shakings): 89%
  Number of shakings: 1.2 ± 0.5
[5]
  reduction of amount of intakes for three minutes: 74.4%
  reduction of anxiety and emotional stress in the conflict situation vs control: 291.0%
[5]; mice
  Number of water intakes for 3 min: 7.3 ± 3.9
  The time between the first and second intake of water: 31.1 ± 3.4 s
[6]; 50 mg/kg
  Duration of life of animals: 83.3 ± 7.9 min
[6]; 100 mg/kg
  Duration of life of animals: 123.2 ± 2.9 min
[7]
  shortening of inflammation vs control: 52.3%
[8]
  time of excretion from the body: 72 h

From patent publication US20140315972A1, “RS)-2-(2-oxo-4-phenylpyrrolidin-1-yl)acetamide compound having modulatory activity with a commensurate effect, pharmaceutical substance (variants) and its application, composition (variants) thereof” (priority 2011, published 2014)
